± gives the expanded uncertainty stated by the source.

For this series the following is noted: 101.33 kPa, Liquid; for viscosity: Capillary tube (Ostwald / Ubbelohde) method; for mass density: Pycnometric method.

Turning to `CC(O)CO` (stereo not given) [1,2-propanediol], the viscosity runs as follows: (303.15 K) 32.4 ± 0.73 mPa·s; (313.15 K) 19.12 ± 0.45 mPa·s; (323.15 K) 12.1 ± 0.28 mPa·s; (333.15 K) 8.19 ± 0.18 mPa·s; (343.15 K) 5.704 ± 0.13 mPa·s. The mass density is on record as 1029 ± 1 kg/m3 (303.15 K); 1021 ± 1 kg/m3 (313.15 K); 1014 ± 1 kg/m3 (323.15 K); 1006 ± 1 kg/m3 (333.15 K); 999 ± 1 kg/m3 (343.15 K).

Take `OCCOCCOCCO` [triethylene glycol]: the viscosity reads like this: (303.15 K) 29.27 ± 0.7 mPa·s; (313.15 K) 18.96 ± 0.46 mPa·s; (323.15 K) 12.96 ± 0.31 mPa·s; (333.15 K) 9.288 ± 0.22 mPa·s; (343.15 K) 6.906 ± 0.17 mPa·s. Moreover, the mass density is on record as 1116 ± 2 kg/m3 (303.15 K); 1109 ± 2 kg/m3 (313.15 K); 1101 ± 2 kg/m3 (323.15 K); 1093 ± 2 kg/m3 (333.15 K); 1086 ± 2 kg/m3 (343.15 K).
